# Columns and labels:
# [1] = test system: MDA-MB-231 cells, HT-1080 cells, A375 cells and HLF cells; assay: MTT assay of cell viability; assay type: cell-based; settings: 1 μM, 5 μM and 10 μM for 48 h in triplicate, 96-well plate; absorbance 570 nm; all the cell lines
# Description: Japan). All fluorescence images were analysed with FV10-ASW V4.0 Image software (Olympus). Three-dimensional map of cells were used 3D rendering by Imaris (Andor-Bitplane, Zurich). Co-localization analysis were used Image-Pro Plus 6.0.
# The cytotoxic potential of PyTPE, Hoechst 33258 and TCNTP was assessed using the MTT assay. MDA-MB-231 cells, HT-1080 cells, A375cells and HLF cells were respectively treated with PyTPE (1 μM, 5 μM and 10 μM), Hoechst 33258 (1 μM, 5 μM and 10 μM) and TCNTP (1 μM, 5 μM and 10 μM) for 48 h in triplicate in a 96-well plate. The absorbance of MTT at 570 nm was recorded by the Infinite M200 PRO […]
# Fig. S21 Metabolic viability of (A) MDA-MB-231 cells, (B) HT-1080 cells, (C) A375 cells and (D) HLF cells after incubation with PyTPE and TCNTP at concentrations of 1 μM, 5 µM and 10 µM for 48 h. Black bars represent PyTPE, red bars represent TCNTP and blue bars […]
# Fig. S22 Fluorescence images of HLF cells treated with 3 µM PyTPE (A) and TCNTP (B) with Hoechst 33258 of each formulation for 12h in cell culturing condition. The white scale […]
# A375 cells = assay: Long-term tracing of cancer cells over culture cycles (CLSM); assay type: cell-based, human; settings: 3 μM for 4 h, after the fifth culture cycle (5 d)
# Description: Due to reverse diffusion, most conventional dyes cannot be retained in living cells for more than a few hours.[35] Although some cell-tracker fluorescence dyes, for example Hoechst stains, can remain in viable cells for a few generations, they bind to DNA and thus interfere with DNA replication during cell division which can be cytotoxic. […] A375 cells were incubated separately with each of 3 μM TCNTP and Hoechst 33258. After 4 h incubation, the probe (or dye) was discarded and the labelled cells continued to be cultured overnight. Then the labelled cells were digested and divided into two dishes for another overnight incubation, referred to as one culture cycle. […] While the yellow fluorescence of TCNTP mainly distributed to cytoplasm for the third culture cycle (3 d) due to degradation of peptides and redistribution of the probe during cell division. […]
# Fig. 5 The CLSM imaging of A375 cells treated with 3 μM TCNTP (A) and 3 μM Hoechst 33258 (B) for 4 h with further incubation for 1 d, 3 d and 5 d in cell culturing conditions. (C) The average fluorescence intensity of TCNTP and Hoechst 33258 in 60× microscopic field (the insets). […]
# The cells stained by TCNTP were still visible even after the tenth culture cycle (Fig. S20 ^†), whereas very weak fluorescence signals were detected in the Hoechst 33258-stained cells after the third culture cycle (Fig. 5B). […]
# [2] = test system: A375 cells co-cultured with MDA-MB-231 cells or HLF cells; assay: Leak-free marking: stained A375 cells co-cultured with unstained cells; assay type: cell-based, human; settings: co-cultured with MDA-MB-231 or HLF cells for 24 h; CLSM
# Description: The cytocompatible nature of TCNTP and its precisely targeted interaction with organelles may account for the leak-free marking inside cells. A375 cells stained by TCNTP were co-cultured with MDA-MB-231 cells or human lung fibroblast (HLF) cells (normal human cell line), in order to evaluate whether TCNTP could be utilized to discriminate between different cell lines. TCNTP could easily stain the MDA-MB-231 cells and HLF cells in monoculture experiment (Fig. S22 ^†).
# The excellent intracellular preservation of TCNTP may be used to develop novel fluorescent probes for differentiating specific cancerous cells from normal cells and for tracing diffusion, necrosis, shrinkage and suppression processes of tumor cells.
# Fig. 6 The experimental scheme of TCNTP-stained (A) or Hoechst 33258-stained (F) A375 cells co-cultured with unstained cells. The CLSM imaging of co-cultivated TCNTP-stained (B) A375 cells and unstained MDA-MB-231 cells (the blue ellipses) or (D) TCNTP-stained A375 cells and unstained HLF cells (the blue ellipses). The average fluorescence intensity of TCNTP in four partial enlarged views (C and E). […] The average fluorescence intensity of Hoechst 33258 in four partial enlarged views (H and J). The blue fluorescence channel: excitation wavelength, 405 nm; emission collected, 425–485 nm. The yellow fluorescence channel: excitation wavelength, 405 nm; emission collected, 495–575 nm. […]
compound,measurement,setting,value
CN1CCN(c2ccc3[nH]c(-c4ccc5[nH]c(-c6ccc(O)cc6)nc5c4)nc3c2)CC1 [Hoechst 33258],toxicity by MTT assay of cell viability,[1],high toxicity
same,Active Cells Remaining (number of remaining stained living cells),A375 cells; 10× microscopic field,2%
same,Signal Remaining (fluorescence signal remaining),A375 cells; 60× microscopic field,6%
same,leakage of dye from stained A375 cells into unstained cells,[2],fast leakage
